Read-outs that look alike come from different tables or passages of the source.
What was measured:
[1] = system: Stage III-V gametocytes (blood stage P. falciparum parasites); assay: In vitro drug activity on gametocytes (AlamarBlue viability assay); type: cell-based, Plasmodium falciparum; conditions: for EC50: read-out: Gametocyte EC50
How it was run: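 Viability was measured by AlamarBlue fluorescence (Ex 525/Em 598 nm) after 24 h dye incubation following 72 h compound exposure at 37° C, 5% CO2. Gametocytes, stage III–V from strains 3D7, HB3 and Dd2, were NAG/Percoll-enriched and plated at 20,000 cells/well.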

[2] = system: Asexual parasites of P. falciparum strain 3D7; assay: In vitro drug activity on asexual parasites (SYBR Green assay); type: cell-based, Plasmodium falciparum
How it was run: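 SYBR Green I fluorescence (ex 490, em 520 nm) was read after freeze-thaw lysis and 30 min staining at room temperature. Before that, drug-treated cultures (0.5% parasitemia, 2% hematocrit, DMSO ≤0.5%) were incubated 72 h, in duplicate.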

[3] = Microsomal stability (rat); type: in vitro ADME; conditions: rat microsomes
Solubility at pH 7.4 = type: physicochemical
PAMPA permeability = type: in vitro ADME
[4] = P. falciparum stage III-V gametocytes, 72 h incubation, AlamarBlue
[5] = P. falciparum 3D7 asexual parasites, 72 h, SYBR Green

Structure (SMILES)	EC50 [1, 4]	EC50 [2, 5]	Microsomal Stability (rat) T1/2 [3]	Sol @ pH 7.4 (ug/mL) (Solubility at pH 7.4)	PAMPA Permeability (×10^6 cm/s) (PAMPA permeability)	Gametocyte EC50 (nM) [1, 4]	EC50 [1]	EC50 [2]	Sol @ pH 7.4 (Solubility at pH 7.4)	PAMPA Permeability (PAMPA permeability)
N#Cc1cccc(-n2c(=O)ccc3cnc4ccc(-c5ccc(N)nc5)cc4c32)c1 [Compound 20]	22.6 nM	11.7 nM	>30.0 min	<1.0 ug/mL	505.6 ×10^6 cm/s	–	–	–	–	–
Cc1ccc(C#N)cc1-n1c(=O)ccc2cnc3ccc(-c4ccc(N)nc4)cc3c21 [Compound 21]	17 nM	13.8 nM	12.7 min	1.1 ug/mL	606 ×10^6 cm/s	–	–	–	–	–
N#Cc1cc(-n2c(=O)ccc3cnc4ccc(-c5ccc(N)nc5)cc4c32)ccc1N1CCOCC1 [Compound 23]	40.4 nM	22.5 nM	3.5 min	1.48 ug/mL	58.15 ×10^6 cm/s	–	–	–	–	–
Cc1c(C#N)cccc1-n1c(=O)ccc2cnc3ccc(-c4ccc(N)nc4)cc3c21 [Compound 24]	23.4 nM	5.88 nM	19 min	5.7 ug/mL	547.9 ×10^6 cm/s	–	–	–	–	–
CS(=O)(=O)c1ccc(-n2c(=O)ccc3cnc4ccc(-c5ccc(Cl)cc5)cc4c32)cc1 [Compound 25]	117 nM	14.7 nM	>30.0 min	<1.0 ug/mL	<1.5 ×10^6 cm/s	–	–	–	–	–
CS(=O)(=O)c1ccc(-n2c(=O)ccc3cnc4ccc(-c5ccc(Cl)c(N)c5)cc4c32)cc1 [Compound 28]	95.3 nM	16.2 nM	>30.0 min	<1.0 ug/mL	33.9 ×10^6 cm/s	–	–	–	–	–
CN(C)Cc1ccc(-c2ccc3ncc4ccc(=O)n(-c5ccc(S(C)(=O)=O)cc5)c4c3c2)cc1 [Compound 30]	336 nM	118 nM	>30.0 min	30.4 ug/mL	677.9 ×10^6 cm/s	–	–	–	–	–
COc1cc(-c2ccc3ncc4ccc(=O)n(-c5ccc(S(C)(=O)=O)cc5)c4c3c2)ccc1Cl [Compound 31]	222 nM	33.5 nM	>30.0 min	<1.0 ug/mL	40.7 ×10^6 cm/s	–	–	–	–	–
CS(=O)(=O)c1ccc(-n2c(=O)ccc3cnc4ccc(-c5ccc(Cl)c(C#N)c5)cc4c32)cc1 [Compound 32]	92.8 nM	85.5 nM	>30.0 min	<1.0 ug/mL	39.6 ×10^6 cm/s	–	–	–	–	–
O=c1ccc2cnc3ccc(-c4ccc(Cl)cc4)cc3c2n1-c1ccc(S(=O)(=O)N2CCOCC2)cc1 [Compound 38]	187 nM	220 nM	12.7 min	<1.0 ug/mL	32.5 ×10^6 cm/s	–	–	–	–	–
NS(=O)(=O)c1ccc(-n2c(=O)ccc3cnc4ccc(-c5ccc(Cl)cc5)cc4c32)cc1 [Compound 40]	51.7 nM	14.6 nM	>30.0 min	<1.0 ug/mL	<1.0 ×10^6 cm/s	–	–	–	–	–
CN(C)S(=O)(=O)c1ccc(-n2c(=O)ccc3cnc4ccc(-c5ccc(Cl)cc5)cc4c32)cc1 [Compound 42]	118 nM	37.4 nM	4.9 min	<1.0 ug/mL	97.4 ×10^6 cm/s	–	–	–	–	–
CS(=O)(=O)c1ccc(-n2c(=O)ccc3cnc4ccc(-c5ccc(Cl)c(C(=O)O)c5)cc4c32)cc1 [Compound 43]	–	43800 nM	>30.0 min	>74.0 ug/mL	<1.0 ×10^6 cm/s	Inactive	–	–	–	–
CN(C)C=NS(=O)(=O)c1ccc(-n2c(=O)ccc3cnc4ccc(-c5ccc(Cl)cc5)cc4c32)cc1 [Compound 44]	135 nM	31.2 nM	4.6 min	<1.0 ug/mL	34.8 ×10^6 cm/s	–	–	–	–	–
CS(=O)(=O)c1ccc(-n2c(=O)ccc3cnc4ccc(-c5ccc(Cl)c(N)c5)cc4c32)cc1C(F)(F)F [Compound 45]	209 nM	77.8 nM	8.9 min	<1.0 ug/mL	144.4 ×10^6 cm/s	–	–	–	–	–
CS(=O)(=O)c1ccc(-n2c(=O)ccc3cnc4ccc(-c5ccc(CN)cc5)cc4c32)cc1 [Compound 47]	377 nM	66.4 nM	>30.0 min	2.1 ug/mL	<2.9 ×10^6 cm/s	–	–	–	–	–

Structure (SMILES)	EC50 [1, 4]	EC50 [2, 5]	Microsomal Stability (rat) T1/2 [3]	Sol @ pH 7.4 (ug/mL) (Solubility at pH 7.4)	PAMPA Permeability (×10^6 cm/s) (PAMPA permeability)	Gametocyte EC50 (nM) [1, 4]	EC50 [1]	EC50 [2]	Sol @ pH 7.4 (Solubility at pH 7.4)	PAMPA Permeability (PAMPA permeability)
Cc1cc(-c2ccc3ncc4ccc(=O)n(-c5ccc(S(C)(=O)=O)cc5)c4c3c2)ccc1Cl [Compound 48]	561 nM	200 nM	>30.0 min	<1.0 ug/mL	<1.0 ×10^6 cm/s	–	–	–	–	–
COC(=O)c1cc(-c2ccc3ncc4ccc(=O)n(-c5ccc(S(C)(=O)=O)cc5)c4c3c2)ccc1Cl [Compound 49]	1990 nM	3190 nM	4.3 min	<1.0 ug/mL	235.8 ×10^6 cm/s	–	–	–	–	–
CN(C)C(=O)c1cc(-c2ccc3ncc4ccc(=O)n(-c5ccc(S(C)(=O)=O)cc5)c4c3c2)ccc1Cl [Compound 50]	1830 nM	932 nM	3 min	2.7 ug/mL	164.4 ×10^6 cm/s	–	–	–	–	–
CS(=O)(=O)c1ccc(-n2c(=O)ccc3cnc4ccc(-c5ccc(Cl)c(C(N)=O)c5)cc4c32)cc1 [Compound 51]	291 nM	203 nM	>30.0 min	4.3 ug/mL	43.1 ×10^6 cm/s	–	–	–	–	–
CS(=O)(=O)c1ccc(-n2c(=O)ccc3cnc4ccc(-c5ccc(Cl)c(C(=O)N6CCOCC6)c5)cc4c32)cc1 [Compound 52]	35200 nM	14700 nM	<1.0 min	57.2 ug/mL	200.8 ×10^6 cm/s	–	–	–	–	–
CCNC(=O)c1cc(-c2ccc3ncc4ccc(=O)n(-c5ccc(S(C)(=O)=O)cc5)c4c3c2)ccc1Cl [Compound 53]	6850 nM	3790 nM	2.8 min	9.6 ug/mL	115.9 ×10^6 cm/s	–	–	–	–	–
CN(C)Cc1ccc(-c2ccc3ncc4ccc(=O)n(-c5ccc(S(=O)(=O)NC6CC6)cc5)c4c3c2)cc1 [Compound 57]	840 nM	381 nM	>30.0 min	7.9 ug/mL	527.8 ×10^6 cm/s	–	–	–	–	–
C[S+]([O-])c1ccc(-n2c(=O)ccc3cnc4ccc(-c5ccc(Cl)cc5)cc4c32)cc1 (stereo not shown) [Compound 59]	25.4 nM	9.07 nM	12.8 min	<0.10 ug/mL	<1.00 ×10^6 cm/s	–	–	–	–	–
CS(=O)(=O)c1ccc(-n2c(=O)ccc3cnc4ccc(-c5cccc(CN)c5)cc4c32)cc1 [Compound 64]	1050 nM	489 nM	>30 min	1.4 ug/mL	<12.3 ×10^6 cm/s	–	–	–	–	–
CS(=O)(=O)c1ccc(-n2c(=O)ccc3cnc4ccc(-c5ccc(C=O)cc5)cc4c32)cc1 [Compound 65]	461 nM	43.1 nM	2.9 min	<1 ug/mL	5.4 ×10^6 cm/s	–	–	–	–	–
Nc1ccc(-c2ccc3ncc4ccc(=O)n(-c5cccc(S(N)(=O)=O)c5)c4c3c2)cn1 [Compound 77]	295 nM	81.7 nM	>30.0 min	33.6 ug/mL	<1.0 ×10^6 cm/s	–	–	–	–	–
CS(=O)(=O)c1ccc(-n2c(=O)ccc3cnc4ccc(-c5ccc(N)nc5)cc4c32)cc1 [Compound 79]	22.8 nM	4.76 nM	>30.0 min	<1.0 ug/mL	<11.8 ×10^6 cm/s	–	–	–	–	–
O=C(c1ccc(-n2c(=O)ccc3cnc4ccc(-c5ccc(Cl)cc5)cc4c32)cc1)N1CCOCC1 [Compound 85]	–	–	9 min	–	–	–	77.6 nM	6.89 nM	<1.0 ug/mL	794 ×10⁻⁶ cm/s
CNC(=O)c1ccc(-n2c(=O)ccc3cnc4ccc(-c5ccc(Cl)cc5)cc4c32)cc1 [Compound 99]	–	–	16.9 min	–	–	–	130 nM	46.7 nM	<1.0 ug/mL	1050 ×10⁻⁶ cm/s
CN(C)Cc1ccc(-c2ccc3ncc4ccc(=O)n(-c5ccc6c(c5)CNC6=O)c4c3c2)cc1 [Compound 340]	616 nM	266 nM	>30.0 min	>68.0 ug/mL	5.2 ×10^6 cm/s	–	–	–	–	–
CN(C)Cc1ccc(-c2ccc3ncc4ccc(=O)n(-c5ccc6c(c5)CCNC6=O)c4c3c2)cc1 [Compound 342]	350 nM	130 nM	>30.00 min	31.01 ug/mL	12.72 ×10^6 cm/s	–	–	–	–	–
